Tests used:
[1] = UV absorption properties (absorption maximum, shoulder, absorption coefficient); format: physicochemical
From the text: Tiliroside absorbs in the UV-B region, i.e. in the wavelength range between 290 and 320 nm, with an absorption maximum at λmax=316 nm, and additionally in the UV-A region, i.e. in the wavelength range between 320 and 400 nm, with an absorption shoulder at λsh=349 nm. The absorption coefficient ε at λmax=316 nm is ε=23260 and at λsh=349 nm is ε=13500.
The absorption coefficient at this wavelength is 23420.

[2] = format: physicochemical
From the text: The invention furthermore relates to the stabilisation of UV filters. A known and effective class of light-protection filter substances is formed by the dibenzoylmethane derivatives. However, it is disadvantageous that these substances are decomposed very easily by UV light and their protective properties are thus lost. An example of a commercially available light-protection filter from this class of compounds which may be mentioned is 4-(tert-butyl)-4′-methoxydibenzoylmethane, which has the structure shown below. [drawing 22]
Tiliroside can be used for stabilisation here as the pure substance or in the form of a plant extract. In a preferred embodiment, tiliroside is used in the form of a plant extract, a purified plant extract or in the form of the pure substance prepared from the plant extract.

[3] = Inherent colour of the substance; format: physicochemical
From the text: The weak inherent colour is, for example, a major advantage if an inherent colour of the ingredients is undesired in the products for aesthetic reasons.

SMILES: O=C(C=Cc1ccc(O)cc1)OC[C@H]1O[C@@H](Oc2c(-c3ccc(O)cc3)oc3cc(O)cc(O)c3c2=O)[C@H](O)[C@@H](O)[C@@H]1O [Tiliroside, kaempferol 3-(6″-p-coumarylglucoside)]
- absorption shoulder λsh ([1]; UV-A region (320 to 400 nm)): 349 nm
- absorption in the UV-A region (in words) ([1]; UV-A region, tiliroside compared with Eusolex 6300): significantly better absorption properties in the UVA region
- absorption maximum λmax ([1]; UV-B region): 316 nm
- absorption coefficient ε at λmax ([1]; at the absorption maximum in the UV-B region (tiliroside 316 nm, Eusolex 6300 300 nm)): 23260
- absorption coefficient ε at λsh ([1]; at the shoulder λsh=349 nm, UV-A region): 13500
- stabilising action for dibenzoylmethanes [2]: particularly high stabilising action
- inherent colour [3]: only a weak inherent colour

— patent publication US20040081675A1, “Cosmetic formulations containing flavonoid derivatives” (priority 2001, published 2004)
